Laboratory results from patent publication US7776292B2 (priority 2004, dated 2010).
“And” between values parts separate entries of the source, which are not always exact repeats. Equal entries are not always repeated.

Tests used:
Type in all cases: cell-based
[1] = tested on: conventional biological indicator spores
weaponized spores [2] = tested on: weaponized spores
weaponized spores [3] = tested on: weaponized spores; remark: listed apart in the source
weaponized spores [4] = tested on: weaponized spores; remark: listed apart in the source
[5] = tested on: conventional biological indicator spores; remark: listed apart in the source
[6] = tested on: TP 10 (conventional bioindicator spores)
weaponized spores [7] = tested on: weaponized spores; remark: listed apart in the source
weaponized spores [8] = tested on: weaponized spores; remark: listed apart in the source
weaponized spores [9] = tested on: weaponized spores; remark: listed apart in the source
[10] = tested on: conventional biological indicator spores; remark: listed apart in the source

## [O][Cl+][O-] [chlorine dioxide]
[1]
  viability in culture, Humidification Time 1 hour: Negative
  viability in culture, Humidification Time 2 hours: Negative
  viability in culture, Humidification Time 3 hours: Negative
Weaponized spores [2]
  filters with viable spores/filters, ClO2 Concentration 500 ppm: 3/4 and 2/2; and 2/2
  filters with viable spores/filters, ClO2 Concentration 1000 ppm: 0/2
  filters with viable spores/filters, ClO2 Concentration 2500 ppm: 0/2
  viable spore count, ClO2 Concentration 500 ppm: 1.43 × 10^3
Weaponized spores [3]
  filters showing viable spores following decontamination (out of 16): none
Weaponized spores [4]
  viability in culture, Humidification Time 1 hour: Positive
  viability in culture, Humidification Time 2 hours: Positive
  viability in culture, Humidification Time 3 hours: Positive
[5]
  filters with viable spores/filters, ClO2 Concentration 500 ppm: 0/2
  filters with viable spores/filters, ClO2 Concentration 1000 ppm: 0/2
  filters with viable spores/filters, ClO2 Concentration 2500 ppm: 0/2
[6]
  viable spores after Cycle 1: 4.3 × 10^5
  viable spores after Cycle 2: 1.3 × 10^3
  viable spores after Cycle 3: 7.2 × 10^2
Weaponized spores [7]
  viable spores after Cycle 1: 5.7 × 10^4
  viable spores after Cycle 2: 0
  viable spores after Cycle 3: 3.3 × 10^1
Weaponized spores [8]
  filters with viable spores/filters, Humidification time 1 hour: 0/2
  filters with viable spores/filters, Humidification time 2 hours: 0/2
  filters with viable spores/filters, Humidification time 3 hours: 0/2
Weaponized spores [9]
  10^−4 (Dilution on agar): TNTC
[10]
  filters with viable spores/filters, Humidification time 1 hour: 0/2
  filters with viable spores/filters, Humidification time 2 hours: 0/2
  filters with viable spores/filters, Humidification time 3 hours: 0/2
